Results on 58 compounds are retold here after patent US10508115B2, “Toll-like receptor 7 (TLR7) agonists having heteroatom-linked aromatic moieties, conjugates thereof, and methods and uses therefor” (BRISTOL-MYERS SQUIBB COMPANY, priority 2017, dated 2019).

The test system of assay [1] is interleukin 6 (IL-6). The assay can be described thus: Interleukin 6 induction assay in human whole blood. In kind it is cell-based. To be noted: 37° C. for 20 h, AlphaLISA, read-out: IL6 Induction (EC50). Here is the method: This example describes a method for assaying interleukin 6 induction by compounds disclosed in this specification.
Compounds diluted in DMSO were transferred to individual wells of a Matrix Technologies clear, V-bottom 384-well plate using ECHO acoustic liquid handling technology (25 nL per well). Human whole-blood samples (25 uL) were added to each well using a CyBio FeliX liquid handling instrument. The plate was shaken on a plate shaker for three min before incubating the reaction mixtures at 37° C. for 20 h. Basel RPMI 1640 medium (supplemented with L-glutamine) was then added to each well (25 uL per well) prior to liberating plasma from each sample by centrifugation (450×g, 5 min, ambient temperature). Treated plasma samples (3 uL) were subsequently transferred to individual wells of a white, shallow, 384-well ProxiPlate (Perkin Elmer) using the FeliX liquid handling instrument and their interleukin 6 levels were measured using AlphaLISA technology as described by the manufacturer, PerkinElmer. Data analyses software was used to determine compound EC50 values where the baseline was established using average DMSO values and 100% induction established using reference compound values at the highest concentration tested. EC50's can be determined with software such as Graphpad Prism™.
In general terms: Bead proximity is the source of the signal in Alpha formats.

The target in assay [2] is human TLR7 (Homo sapiens (Human), UniProt Q9NYK1). The assay can be described thus: HEK-Blue TLR7 reporter assay (TLR7 agonist activity). The class given is cell-based. To be noted: HEK-Blue TLR7 cells, SEAP reporter, 18 h treatment; read-out: TLR7 Agonism (EC50). Here is the method:
This example describes a method for assaying TLR7 agonist activity of the compounds disclosed in this specification.
HEK-Blue™ TLR7 cells were added to each well of a 384-well tissue-culture plate (15,000 cells per well) and incubated 16-18 h at 37° C., 5% CO2. Compounds (100 nl) were dispensed into wells containing the HEK-Blue™ TLR cells and the treated cells were incubated at 37° C., 5% CO2. After 18 h treatment ten microliters of freshly-prepared Quanti-Blue™ reagent (Invivogen) was added to each well, incubated for 30 min (37° C., 5% CO2) and SEAP levels measured using an Envision plate reader (OD=620 nm).
(In general: A reporter such as luciferase makes a cellular process visible.)

The test system of assay [3] is IFN-α. To be noted: fold less potent than corresponding purine-8-one compound; cited from earlier work.

human TLR7, sequence (Q9NYK1 27-1049): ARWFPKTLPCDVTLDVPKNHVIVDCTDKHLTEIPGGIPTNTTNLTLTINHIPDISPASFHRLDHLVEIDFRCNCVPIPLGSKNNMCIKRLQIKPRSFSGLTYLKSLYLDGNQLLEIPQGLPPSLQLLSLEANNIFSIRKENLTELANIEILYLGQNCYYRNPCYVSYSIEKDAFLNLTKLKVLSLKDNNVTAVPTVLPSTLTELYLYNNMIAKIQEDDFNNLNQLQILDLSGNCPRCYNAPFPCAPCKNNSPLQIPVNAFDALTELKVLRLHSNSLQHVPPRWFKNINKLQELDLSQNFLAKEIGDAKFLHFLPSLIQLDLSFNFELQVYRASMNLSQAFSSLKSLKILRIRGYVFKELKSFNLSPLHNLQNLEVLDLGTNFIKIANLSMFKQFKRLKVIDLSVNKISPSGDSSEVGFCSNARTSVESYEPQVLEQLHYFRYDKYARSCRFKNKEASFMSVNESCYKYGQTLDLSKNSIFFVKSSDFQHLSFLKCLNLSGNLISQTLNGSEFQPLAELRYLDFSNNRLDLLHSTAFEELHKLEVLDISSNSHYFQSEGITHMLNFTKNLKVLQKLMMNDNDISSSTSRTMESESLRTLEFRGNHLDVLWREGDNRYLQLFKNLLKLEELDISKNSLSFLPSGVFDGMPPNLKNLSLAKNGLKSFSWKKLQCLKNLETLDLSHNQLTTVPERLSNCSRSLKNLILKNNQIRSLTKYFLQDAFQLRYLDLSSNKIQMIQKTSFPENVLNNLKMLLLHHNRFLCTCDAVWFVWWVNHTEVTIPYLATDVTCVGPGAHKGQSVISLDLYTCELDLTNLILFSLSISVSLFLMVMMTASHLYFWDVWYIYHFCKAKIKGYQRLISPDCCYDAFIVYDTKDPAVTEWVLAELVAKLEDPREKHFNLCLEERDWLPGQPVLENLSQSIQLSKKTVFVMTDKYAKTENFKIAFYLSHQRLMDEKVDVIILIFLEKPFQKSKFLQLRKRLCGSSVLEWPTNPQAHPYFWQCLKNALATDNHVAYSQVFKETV

Turning to `CCCCOc1nc(N)c2nc(O)n(Cc3ccc(Nc4ccc(CNC5CCOCC5)cc4)nc3)c2n1` [If-03], the EC50 in assay [1] worked out at 14 nM.
Regarding `CCCCOc1nc(N)c2nc(O)n(Cc3ccc(Oc4ccc(CNC5CC(F)(F)C5)cc4)nc3)c2n1` [Ib-10], the EC50 in assay [1] is 14.3 nM.
As to `CCCCOc1nc(N)c2nc(O)n(Cc3ccc(Oc4ccc(CNC5CC5)cc4)nc3)c2n1` [Ib-17], the EC50 in assay [2] stood at 0.83 nM; in assay [1], 5.11 nM.
On to `CCCCOc1nc(N)c2nc(O)n(Cc3ccc(Oc4ccc(CNC(C)C)cc4)nc3)c2n1` [Ib-03], for which the EC50 in assay [1] was 7.5 nM.
For `CCCCOc1nc(N)c2nc(O)n(Cc3ccc(Oc4ccc(CO)cc4)cc3)c2n1` [Ia-01], the results for the EC50 in assay [2] and in assay [1] were 14 nM and 506 nM, respectively.
`CCCCOc1nc(N)c2nc(O)n(Cc3ccc(Oc4ccc(CNCC(F)F)cc4)c(F)c3)c2n1` [Ie-04]: in assay [1], the EC50 worked out at 460 nM.
As for `CCCCOc1nc(N)c2nc(O)n(Cc3ccc(Oc4ccc(CNC)cc4)nc3)c2n1` [Ib-02], the EC50 in assay [1] worked out at 29.6 nM.
As for `CCCCOc1nc(N)c2nc(O)n(Cc3ccc(Nc4ccc(CNCC(F)F)cc4)nc3)c2n1` [If-05], the EC50 in assay [1] came out at 17 nM.
As to `CCCCOc1nc(N)c2nc(O)n(Cc3ccc(Oc4ccc(CNC5COC5)cc4)cc3)c2n1` [Ia-05], the EC50 in assay [1] amounted to 31 nM.
In the case of `CCCCOc1nc(N)c2nc(O)n(Cc3ccc(Oc4ccc(CO)cc4)nc3)c2n1` [Ib-01], the EC50 in assay [1] worked out at 104 nM.
On the same count and under the same terms, with `CCCCOc1nc(N)c2nc(O)n(Cc3ccc(Oc4ccc(CNCCO)cc4)c(F)c3)c2n1` [Ie-06] the figure was 29 nM; with `CCCCOc1nc(N)c2nc(O)n(Cc3ccc(Oc4ccc(CNCC(C)C)nc4)nc3)c2n1` [Id-01], 28 nM; with `CCCCOc1nc(N)c2nc(O)n(Cc3ccc(Oc4ccc(CNC5C6CC5C6)cc4)nc3)c2n1` (stereo not drawn) [Ib-09], 5.91 nM.
As to `CCCCOc1nc(N)c2nc(O)n(Cc3ccc(Oc4ccc(CN5CCC5)cc4)c(F)c3)c2n1` [Ie-03], in assay [1], the EC50 came to 19 nM.
Regarding `CCCCOc1nc(N)c2nc(O)n(Cc3ccc(Oc4ccc(CNC5CCOCC5)cc4)c(F)c3)c2n1` [Ie-08], in assay [1], the EC50 came out at 7.6 nM.
Consider `CCCCOc1nc(N)c2nc(O)n(Cc3ccc(Oc4ccc(CNCCS(C)(=O)=O)cc4)nc3)c2n1` [Ib-14], for which the half-maximal effective concentration (EC50) in assay [1] came out at 18.9 nM.
As to `CCCCOc1nc(N)c2nc(O)n(Cc3ccc(Oc4cccc(CNCCOC)n4)cc3)c2n1` [Ic-06], the figures for the EC50 in assay [2] and in assay [1] were 2.82 nM and 28 nM, respectively.
Regarding `CCCCOc1nc(N)c2nc(O)n(Cc3ccc(Oc4ccc(CNCc5ccccc5)cc4)cc3)c2n1` [Ia-08], in assay [1], the half-maximal effective concentration (EC50) was determined as 24.3 nM.
For the compound `CCCCOc1nc(N)c2nc(O)n(Cc3ccc(Oc4ccc(CNCC(C)C)cc4)nc3)c2n1` [Ib-12], in assay [1], the EC50 was found to be 3.77 nM.
`CCCCOc1nc(N)c2nc(O)n(Cc3ccc(Oc4ccc(CNCC(F)F)cc4)nc3)c2n1` [Ib-13]: in assay [1], the EC50 is 30.9 nM.
In the case of `CCCCOc1nc(N)c2nc(O)n(Cc3ccc(Oc4cccc(CNCCC#N)n4)cc3)c2n1` [Ic-07], the EC50 in assay [1] amounted to 133 nM.
As to `CCCCOc1nc(N)c2nc(O)n(Cc3ccc(Oc4ccc(CNC5CC5)cc4)cc3)c2n1` [Ia-03], the concentration giving a half-maximal response (EC50) in assay [1] came to 17.6 nM.
For the compound `CCCCOc1nc(N)c2nc(O)n(Cc3ccc(Oc4ccc(CN5CCOCC5)nc4)nc3)c2n1` [Id-07], the EC50 in assay [1] was determined as 15 nM.
For `CCCCOc1nc(N)c2nc(O)n(Cc3cccc(Oc4cccc(CNCc5ccncc5)c4)c3)c2n1` [IIa-11], in assay [2], the EC50 stood at 431 nM.
On the same count and under the same terms, with `CCCCOc1nc(N)c2nc(O)n(Cc3cccc(Oc4cccc(CNC5CCOCC5)c4)c3)c2n1` [IIa-04] the figure was 113 nM.
In the case of `CCCCOc1nc(N)c2nc(O)n(Cc3ccc(Oc4ccc(CNC5CCC5)cc4)cc3)c2n1` [Ia-04], the EC50 in assay [1] was determined as 10.4 nM.
`CCCCOc1nc(N)c2nc(O)n(Cc3ccc(Oc4ccc(CNCCOC)cc4)cc3)c2n1` [Ia-07]: the EC50 in assay [2] worked out at 1.3 nM; in assay [1] it was 6.62 nM.
In the case of `CCCCOc1nc(N)c2nc(O)n(Cc3ccc(Oc4ccc(CN5CCN(C)CC5)cc4)c(F)c3)c2n1` [Ie-10], in assay [1], the EC50 is 75 nM.
The same measure, in the same setting: with `CCCCOc1nc(N)c2nc(O)n(Cc3ccc(Oc4ccc(CNC5COC5)cc4)nc3)c2n1` [Ib-05] the figure was 9.57 nM; with `CCCCOc1nc(N)c2nc(O)n(Cc3ccc(Oc4ccc(CNCCO)nc4)nc3)c2n1` [Id-05], 12 nM; with `CCCCOc1nc(N)c2nc(O)n(Cc3ccc(Oc4ccc(CN5CCN(C)CC5)nc4)nc3)c2n1` [Id-08], 21 nM.
On to `CCCCOc1nc(N)c2nc(O)n(Cc3ccc(Oc4cccc(CNC5COC5)n4)cc3)c2n1` [Ic-03], for which the EC50 in assay [1] turned out to be 78 nM.
As to `CCCCOc1nc(N)c2nc(O)n(Cc3ccc(Oc4cccc(CNCC(C)C)n4)cc3)c2n1` [Ic-01], the EC50 in assay [1] is 10.1 nM.
Same read-out and setting: with `CCCCOc1nc(N)c2nc(O)n(Cc3ccc(Oc4ccc(CNCCC#N)cc4)nc3)c2n1` [Ib-16] the figure was 84.8 nM; with `CCCCOc1nc(N)c2nc(O)n(Cc3ccc(Oc4ccc(CNC5CCOCC5)nc4)nc3)c2n1` [Id-03], 14 nM.
For the compound `CCCCOc1nc(N)c2nc(O)n(Cc3ccc(Oc4ccc(CNCCS(C)(=O)=O)cc4)c(F)c3)c2n1` [Ie-07], the EC50 turned out to be 1.71 nM in assay [2] and 130 nM in assay [1].
Consider `CCCCOc1nc(N)c2nc(O)n(Cc3ccc(Oc4cccc(CNC5CCC5)n4)cc3)c2n1` [Ic-02], for which the EC50 in assay [1] was 16.1 nM.
Still for that read-out and setting: with `CCCCOc1nc(N)c2nc(O)n(Cc3ccc(Nc4ccc(CNCC(C)(C)O)cc4)nc3)c2n1` [If-07] the figure was 7.8 nM; with `CCCCOc1nc(N)c2nc(O)n(Cc3ccc(Oc4ccc(CNC5CCC5)cc4)c(F)c3)c2n1` [Ie-02], 19 nM.
Consider `CCCCOc1nc(N)c2nc(O)n(Cc3ccc(Oc4ccc(CN5CCOCC5)cc4)c(F)c3)c2n1` [Ie-09], for which the EC50 in assay [1] is 250 nM.
Same read-out and setting: the value for `CCCCOc1nc(N)c2nc(O)n(Cc3ccc(Nc4ccc(CNCC(C)C)cc4)nc3)c2n1` [If-01] was 24 nM.
For `CCCCOc1nc(N)c2nc(O)n(Cc3ccc(Oc4ccc(CNCC(C)C)cc4)c(F)c3)c2n1` [Ie-01], the concentration giving a half-maximal response (EC50) in assay [1] turned out to be 26 nM.
Still for that read-out and setting: the value for `CCCCOc1nc(N)c2nc(O)n(Cc3ccc(Oc4ccc(CNCC(F)F)nc4)nc3)c2n1` [Id-06] was 100 nM.
As to `CCCCOc1nc(N)c2nc(O)n(Cc3ccc(Oc4ccc(CNCCOC)cc4)nc3)c2n1` [Ib-07], the EC50 in assay [2] is 0.62 nM; in assay [1] it was 5.81 nM.
Take `CCCCOc1nc(N)c2nc(O)n(Cc3ccc(Nc4ccc(CN5CCCC5)cc4)nc3)c2n1` [If-06]: the EC50 in assay [1] was found to be 3.8 nM.
`CCCCOc1nc(N)c2nc(O)n(Cc3ccc(Oc4ccc(CNC5CCCC5)cc4)nc3)c2n1` [Ib-11]: in assay [1], the EC50 worked out at 8.14 nM.
Regarding `CCCCOc1nc(N)c2nc(O)n(Cc3ccc(Nc4ccc(CNCCO)cc4)nc3)c2n1` [If-02], in assay [1], the EC50 is 72 nM.
As for `CCCCOc1nc(N)c2nc(O)n(Cc3ccc(Oc4ccc(CNCCO)cc4)nc3)c2n1` [Ib-06], the EC50 turned out to be 0.91 nM in assay [2] and 10.7 nM in assay [1].
As for `CCCCOc1nc(N)c2nc(O)n(Cc3ccc(Oc4cccc(CNCCO)n4)cc3)c2n1` [Ic-05], the results for the EC50 in assay [2] and in assay [1] were 0.871 nM and 44.2 nM, respectively.
Consider `CCCCOc1nc(N)c2nc(O)n(Cc3ccc(Oc4ccc(CNCCOC)nc4)nc3)c2n1` [Id-04], for which the EC50 in assay [1] is 13 nM.
Take `CCCCOc1nc(N)c2nc(O)n(Cc3ccc(Oc4ccc(CNC)cc4)cc3)c2n1` [Ia-02]: the EC50 in assay [2] is 1.3 nM.
With `CCCCOc1nc(N)c2c(n1)N(Cc1cccc(CN3CCCC3)c1)CC(=O)N2` [Vesatolimod, vesatolimod], the “potency less than that of the corresponding purine-8-one compound, as measured by IFN-α induction” value in assay [3] is given as 100 ×.
In the case of `CCCCOc1nc(N)c2nc(O)n(Cc3ccc(Nc4ccc(CNC5CCC5)cc4)nc3)c2n1` [If-04], the EC50 in assay [1] stood at 2.5 nM.
Regarding `CCCCOc1nc(N)c2nc(O)n(Cc3ccc(Oc4ccc(CNC5CCC5)nc4)nc3)c2n1` [Id-02], the EC50 in assay [1] came to 25 nM.
On the same count and under the same terms, with `CCCCOc1nc(N)c2nc(O)n(Cc3ccc(Oc4ccc(CNCCOC)cc4)c(F)c3)c2n1` [Ie-05] the figure was 24 nM; with `CCCCOc1nc(N)c2nc(O)n(Cc3ccc(Oc4ccc(CNCC5CC5)cc4)nc3)c2n1` [Ib-15], 64.7 nM; with `CCCCOc1nc(N)c2nc(O)n(Cc3ccc(Nc4ccc(CNCCS(C)(=O)=O)cc4)nc3)c2n1` [If-09], 68 nM.
Turning to `CCCCOc1nc(N)c2nc(O)n(Cc3ccc(Oc4ccc(CNCCO)cc4)cc3)c2n1` [Ia-06], in assay [1], the EC50 stood at 17.3 nM.

In general, EC50 refers to the midpoint of the concentration-response curve.
